Experimental data as given in patent publication US20230110354A1, “THERAPEUTIC AGENT DELIVERY SYSTEMS AND METHODS OF FORMING AND USES THEREOF” (The Regents of the University of Colorado, a Body Corporate, priority 2020, published 2023).
Structures can show the parent of a compound that is named as a salt.

How the values were obtained:
[1] = Lidocaine release study, gelatin-lidocaine hydrogel (UV-Vis 280 nm); assay type: physicochemical
Description: The coated tubing was placed in a 7 ml glass scintillation vial for the release study.
The release solution medium (1 ml of PBS) was added to the scintillation vials, and the sample was incubated at 37° C. 1 ml samples were taken daily, and the release solution was replenished. The day 0 sample was taken 5 minutes after adding the release solution to the vials to measure the amount of lidocaine not incorporated into the gels. […] As a control, the same gelatin samples were prepared without the addition of lidocaine to measure any change in absorbance readings from the gel itself.

[2] = Lidocaine release study, lidocaine-loaded nanoparticles in crosslinked gelatin hydrogel (UV-Vis 280 nm); assay type: physicochemical
Description: For the lidocaine release study, a coated tubing which comprises a dried 1 cm by 0.5 cm piece of gelatin-lidocaine (100 mg lidocaine in 0.5 ml gelatin, 1% GA) was used. The coated tubing was placed in a 7 ml glass scintillation vial for the release study. The release solution medium (1 ml of PBS) was added to the scintillation vials, and the sample was incubated at 37° C. 1 ml samples were taken daily, and the release solution was replenished. The day 0 sample was taken 5 minutes after adding the release solution to the vials to measure the amount of lidocaine not incorporated into the gels.
The amount of lidocaine released as an effect of different nanoparticle formulations and differing amounts of lidocaine was determined using a UV-Vis spectrophotometer (GENESYS 10S UV-Vis) at 280 nm wavelength and samples were performed in triplicate (n=3). As a control, the same gelatin samples were prepared without the addition of lidocaine to measure any change in absorbance readings from the gel itself.

[3] = package insert; cited from earlier work
NIH3T3 cells = settings: 10 pg/mL, low serum or serum-free medium; cited from earlier work
[4] = In vitro protein release test from SRTG micelle system (ELISA); assay type: physicochemical; settings: for loading efficiency of protein in the hydrogel / loaded protein released by day 1 (burst release): SRTG 5 wt% + micelle NPs; for loading efficiency of protein in the hydrogel: 500 ng of each protein, day 0 sample after 5 min; for loaded protein released by day 1 (burst release): PBS with 0.2% BSA, 37° C.; for sustained release rate: after day 0 / day 1 through 28 days
Description: Proton nuclear magnetic resonance (1H NMR) was completed with a Varian Inova 500 NMR spectrometer. 1H NMR was used to confirm the structure of PEG-PSHU-PEG. The PEG-PSHU-PEG samples to be analyzed were dissolved in 600 μL of DMSO-d6. Protein Release Test. […] Solutions were mixed and left to dissolve overnight at 4° C. […] Then, 1 mL of warm (37° C.) release solution (lx PBS with 0.2% BSA) was added to the vials. After 5 min, 1 mL of release solution was removed from each sample for the day 0 time point, and 1 mL of fresh warm release solution was added. Samples were then taken every 24 h and immediately placed in a −80° C. freezer for further analysis. Enzyme-linked immunosorbent assay (ELISA) was used to quantify the concentration of proteins in the release solution samples following the manufacturer's instructions (Peprotech, Rocky Hill, N.J.). ELISA color development was monitored with a BioTek Synergy 2 Multi-Mode Reader at 405 nm with wavelength correction set at 650 nm. The results of three replicates were averaged. The hydrogels were initially allowed to stabilize for 5 min at which a sample was taken to determine the loading efficiency of the proteins in the hydrogels (day 0).

[5] = cited from earlier work

For CCN(CC)CC(=O)Nc1c(C)cccc1C [lidocaine], the “period of continued stable lidocaine elution, post-sterilization” value ([1]; Example 7, chest tube coated with lidocaine loaded crosslinked gelatin) was 3 to 7 days, the “duration of sustained release of lidocaine” value (“duration … of lidocaine” for short) ([1]; various gelatin and glutaraldehyde concentrations, coated tubing method) was 10 days and the “duration … of lidocaine” value ([2]; 20 mg and 10 mg NP groups loaded with 100 mg of lidocaine, in gelatin hydrogel, PBS, 37° C.) was 10 days. The “duration … of lidocaine” value ([2]; 50 mg lidocaine groups, NP formulations in gelatin hydrogel) was 11 days and the “period of continued stable lidocaine elution, post-sterilization” value ([2]; Example 6, chest tube coated with micelle-loaded crosslinked gelatin) was 3 to 7 days.

For CCN(CC)CC(=O)Nc1c(C)cccc1C [lidocaine hydrochloride], the “maximum dose at one time” value [3] is given as at most 300 mg and the maximum subcutaneous dose [3] is given as “about 4.5 mg/kg”.

For “TGF-β1: transforming growth factor-β1, literature example”, the “effect on growth rate of NIH3T3 cells” value (NIH3T3 cells) is given as “stimulated the growth rate of NIH3T3 cells”.

With PDGF the “loading efficiency of protein in the hydrogel” value [4] was 99%, the “loaded protein released by day 1 (burst release)” value [4] was “approximately 3%” and the sustained release rate ([4]; SRTG micelle system) was 0.39 ng per day. For the same molecule, the “duration of sustained release from the delivery system” value ([4]; in vitro, SRTG micelle system) was 28 days.

B1: IL-10: Recombinant Murine IL-10, anti-inflammatory cytokine; cited Kd is for human IL-10 (protein, UniProt P18893 19-178, looked up)
Interleukin-10: SRGQYSREDNNCTHFPVGQSHMLLELRTAFSQVKTFFQTKDQLDNILLTDSLMQDFKGYLGCQALSEMIQFYLVEVMPQAEKHGPEIKEHLNSLGEKLKTLRMRLRRCHRFLPCENKSKAVEQVKSDFNKLQDQGVYKAMNEFDIFINCIEAYMMIKMKS
For B1, the “loading efficiency of protein in the hydrogel” value [4] was 93%, the “loaded protein released by day 1 (burst release)” value [4] was “approximately 21%” and the sustained release rate ([4]; SRTG micelle system) was 0.24 ng per day. For the same molecule, the half-life in vivo [5] was “less than 5 h”.
